Data set [1] deals with Leukemia L-1210. Put plainly: Effect on life span of mice implanted with Leukemia L-1210 (Method B). Conditions: for ILS30: denominator in brackets of the therapeutic index cell; for ILS30 / OD: dose column in mg/kg/day; for 60-day survivors: survivors/mice in group; for OD: numerator in brackets of the therapeutic index cell; for increase in the life span of mice: dose of 50 mg/kg/day. Format: in vivo. Here is the method:
[…] test compound was begun 24 hours after the inoculation of the leukemic cells and performed once a day for 5 days. The survival days of the treated mice were observed.

Data set [2] concerns Ehrlich ascites carcinoma. Put plainly: Preventive effect against the growth of Ehrlich ascites carcinoma (Method A). Particulars: for MTD: footnote *3 in image, dose column in mg/kg/day; for MED: footnote *4 in image, b22: minimum effective dose per day which causes 100 % inhibition, in mg/kg/day; for M.E.D.: minimum effective dose per day which causes 100 % inhibition of Ehrlich ascites carcinoma. Format: in vivo, mice. The text has this: It may be useful to prolong the survival time of warm-blood .animals, including human,.afflicted with tumors and/or minimize the growth of tumors in said animals. […] The compound of the present invention is also useful for the treatment of various other tumors such as prostate tumor, orchis tumor, ovary tumor, malignant lymphoma, leukemia, breast cancer and the like.

The mark [3] stands for this setting: dose 1.56 mg/kg/day, (C - T)/C x 100.
[4] abbreviates: dose 3.12 mg/kg/day, (C - T)/C x 100.
The mark [5] stands for this setting: dose 6.25 mg/kg/day, (C - T)/C x 100.
[6] abbreviates: dose 25 mg/kg/day, (C - T)/C x 100.
Setting [7] is: dose 100 mg/kg/day, (C - T)/C x 100.
[8] abbreviates: dose 200 mg/kg/day, cell prints toxicity instead of inhibition (footnote *6 in image).

In data set [1], “cis-Dioxamato(2-aminomethylpyridine) platinum (II) [Compound 3]” displayed an ILS30 of 1.65. The “ILS (%)” value in data set [1] (dose 1.56 mg/kg/day) is given as 28.6%; in data set [1] (dose 3.12 mg/kg/day), 47.1%; in data set [1] (dose 6.25 mg/kg/day), 85.7%; in data set [1] (dose 12.5 mg/kg/day) it was 90.0%; in data set [1] (dose 25 mg/kg/day) it was 100.0%; in data set [1] (dose 50 mg/kg/day) it was over 607.1%. Moreover, in data set [1] (dose 100 mg/kg/day), the “ILS (%)” value was over 757.1%. In addition, the 60-day survivors is listed as 0/4 in data set [1] (dose 1.56 mg/kg/day); 0/4 in data set [1] (dose 3.12 mg/kg/day); 0/4 in data set [1] (dose 6.25 mg/kg/day); 0/4 in data set [1] (dose 12.5 mg/kg/day); 0/4 in data set [1] (dose 25 mg/kg/day); 3/4 in data set [1] (dose 50 mg/kg/day). Moreover, the 60-day survivors in data set [1] (dose 100 mg/kg/day) was 4/4. Further, the OD in data set [1] is 100.

Regarding “cis-Malonato(2-aminomethylpyridine) platinum (II) [Compound 2]”, the “Inhibition rate (%)” value in data set [2] (setting [3]) is reported as 12.9%; in data set [2] (setting [4]), 100%; in data set [2] (setting [5]), 100%; in data set [2] (setting [6]) it was 100%; in data set [2] (setting [7]), 100%; in data set [2] (setting [8]) it was “Toxic(5/5)^*6”. This substance also gave an MTD in data set [2] of 100. Also, the MED in data set [2] is given as 3.12. In data set [2], the M.E.D. came to 3.12 mg/kg/day. In addition, the ILS30 in data set [1] amounted to 1.8. The “ILS (%)” value was 25.7% in data set [1] (dose 1.56 mg/kg/day); 47.1% in data set [1] (dose 3.12 mg/kg/day); 61.4% in data set [1] (dose 6.25 mg/kg/day); 92.9% in data set [1] (dose 12.5 mg/kg/day); 185.7% in data set [1] (dose 25 mg/kg/day); over 757.1% in data set [1] (dose 50 mg/kg/day). In data set [1] (dose 100 mg/kg/day), the “ILS (%)” value is reported as over 757.1%. In addition, the 60-day survivors in data set [1] (dose 1.56 mg/kg/day) was 0/4; in data set [1] (dose 3.12 mg/kg/day), 0/4; in data set [1] (dose 6.25 mg/kg/day), 0/4; in data set [1] (dose 12.5 mg/kg/day) it was 0/4; in data set [1] (dose 25 mg/kg/day) it was 0/4; in data set [1] (dose 50 mg/kg/day), 4/4. Moreover, the 60-day survivors in data set [1] (dose 100 mg/kg/day) is listed as 4/4. For the same substance, the “increase in the life span of mice” value in data set [1] is “more than 745%”. This substance showed an OD in data set [1] of 100.

“cis-Oxalato(2-aminomethylpyridine) platinum (II) [Compound 1]”: the “Inhibition rate (%)” value in data set [2] (setting [3]) is 21.9%; in data set [2] (setting [4]), 100%; in data set [2] (setting [5]) it was 100%; in data set [2] (setting [6]), 100%; in data set [2] (setting [7]), 100%; in data set [2] (setting [8]), “Toxic(5/5)^*6”. For the same substance, in data set [2], the MTD is recorded as 100. The same substance showed an MED in data set [2] of 3.12. In data set [2], this substance registered a M.E.D. of 3.12 mg/kg/day. The substance also registered an ILS30 in data set [1] of 1.3. Also, the “ILS (%)” value in data set [1] (dose 0.78 mg/kg/day) was 19.7%; in data set [1] (dose 1.56 mg/kg/day), 33.8%; in data set [1] (dose 3.12 mg/kg/day), 52.1%; in data set [1] (dose 6.25 mg/kg/day), 80.3%; in data set [1] (dose 12.5 mg/kg/day), over 269.0%; in data set [1] (dose 25 mg/kg/day), over 463.4%. Besides, the “ILS (%)” value in data set [1] (dose 50 mg/kg/day) and in data set [1] (dose 100 mg/kg/day) was over 745.1% in each case. Moreover, the 60-day survivors was 0/4 in data set [1] (dose 0.78 mg/kg/day); 0/4 in data set [1] (dose 1.56 mg/kg/day); 0/4 in data set [1] (dose 3.12 mg/kg/day); 0/4 in data set [1] (dose 6.25 mg/kg/day); 1/4 in data set [1] (dose 12.5 mg/kg/day); 2/4 in data set [1] (dose 25 mg/kg/day). Also, the 60-day survivors in data set [1] (dose 50 mg/kg/day) and in data set [1] (dose 100 mg/kg/day) was 4/4 each time. Further, the “increase in the life span of mice” value in data set [1] is listed as “more than 745%”. Further, the OD in data set [1] came out at 100.
